This test has as its system M. tuberculosis isoniazid-resistant strain (spec. 210). The test can be described thus: Tuberculostatic activity, test-tube dilution. The test is classed as cell-based. The conditions noted are these: Mycobacterium tuberculosis, read-out: MIC M. tuberculosis Isoniazid-Resistant Strain.

The structures appear in SMILES notation. In brackets after ≈: the same amount, converted by molar mass. Where only a bound is given, the exact number is not on record here.

Usually MIC stands for the lowest concentration found to suppress growth. `CC[C@H](C(=O)NCc1ccccc1Cl)C1CC[C@H](C)C([C@@H](C)[C@H](O)[C@H](C)C(=O)[C@H](CC)C2O[C@]3(C=C[C@@H](O)C4(CC[C@@](C)(C5CC[C@](O)(CC)[C@H](C)O5)O4)O3)[C@H](C)C[C@@H]2C)O1` (some centres unmarked) [Cl-o]: the MIC was > 100 µg/mL.
To `CC[C@H](C(=O)NCc1ccccc1Br)C1CC[C@H](C)C([C@@H](C)[C@H](O)[C@H](C)C(=O)[C@H](CC)C2O[C@]3(C=C[C@@H](O)C4(CC[C@@](C)(C5CC[C@](O)(CC)[C@H](C)O5)O4)O3)[C@H](C)C[C@@H]2C)O1` (some centres unmarked) [Br-o] belongs > 100 µg/mL.
To `NNC(=O)c1ccncc1` [Isoniazid, isoniazid, reference compound] belongs 6.25 µg/mL (≈ 45.6 µM); to `CC[C@@H](C(=O)[C@@H](C)[C@@H](O)[C@H](C)[C@@H]1O[C@@H]([C@@H](CC)C(=O)O)CC[C@@H]1C)[C@H]1O[C@]2(C=C[C@@H](O)[C@]3(CC[C@@](C)([C@H]4CC[C@](O)(CC)[C@H](C)O4)O3)O2)[C@H](C)C[C@@H]1C` [SAL, Salinomycin], 50 µg/mL (≈ 66.6 µM); to `CCC(C(=O)NCc1ccccc1F)C1CCC(C)C(C(C)C(O)C(C)C(=O)C(CC)C2OC3(C=CC(O)C4(CCC(C)(C5CCC(O)(CC)C(C)O5)O4)O3)C(C)CC2C)O1` (centres unmarked) [F-o], 100 µg/mL (≈ 117 µM).
To `CC[C@H](C(=O)NCc1ccc([N+](=O)[O-])cc1)C1CC[C@H](C)C([C@@H](C)[C@H](O)[C@H](C)C(=O)[C@H](CC)C2O[C@]3(C=C[C@@H](O)C4(CC[C@@](C)(C5CC[C@](O)(CC)[C@H](C)O5)O4)O3)[C@H](C)C[C@@H]2C)O1` (some centres unmarked) [NO2-p] belongs 50 µg/mL (≈ 56.5 µM); to `CC[C@H](C(=O)NCc1cccc(Cl)c1)C1CC[C@H](C)C([C@@H](C)[C@H](O)[C@H](C)C(=O)[C@H](CC)C2O[C@]3(C=C[C@@H](O)C4(CC[C@@](C)(C5CC[C@](O)(CC)[C@H](C)O5)O4)O3)[C@H](C)C[C@@H]2C)O1` (some centres unmarked) [Cl-m], > 100 µg/mL.
Regarding `CCC(C(=O)NCc1cccc(F)c1)C1CCC(C)C(C(C)C(O)C(C)C(=O)C(CC)C2OC3(C=CC(O)C4(CCC(C)(C5CCC(O)(CC)C(C)O5)O4)O3)C(C)CC2C)O1` (centres unmarked) [F-m], the MIC is > 100 µg/mL.
To `CC[C@H](C(=O)NCc1cccc(Br)c1)C1CC[C@H](C)C([C@@H](C)[C@H](O)[C@H](C)C(=O)[C@H](CC)C2O[C@]3(C=C[C@@H](O)C4(CC[C@@](C)(C5CC[C@](O)(CC)[C@H](C)O5)O4)O3)[C@H](C)C[C@@H]2C)O1` (some centres unmarked) [Br-m] belongs > 100 µg/mL; to `CC[C@H](C(=O)NCc1ccc(Cl)cc1)C1CC[C@H](C)C([C@@H](C)[C@H](O)[C@H](C)C(=O)[C@H](CC)C2O[C@]3(C=C[C@@H](O)C4(CC[C@@](C)(C5CC[C@](O)(CC)[C@H](C)O5)O4)O3)[C@H](C)C[C@@H]2C)O1` (some centres unmarked) [Cl-p, p-chlorobenzyl amide of salinomycin], > 100 µg/mL; to `CC[C@H](C(=O)NCc1ccc(F)cc1)C1CC[C@H](C)C([C@@H](C)[C@H](O)[C@H](C)C(=O)[C@H](CC)C2O[C@]3(C=C[C@@H](O)C4(CC[C@@](C)(C5CC[C@](O)(CC)[C@H](C)O5)O4)O3)[C@H](C)C[C@@H]2C)O1` (some centres unmarked) [F-p], 50 µg/mL (≈ 58.3 µM).
To `CC[C@H](C(=O)NCc1ccc(Br)cc1)C1CC[C@H](C)C([C@@H](C)[C@H](O)[C@H](C)C(=O)[C@H](CC)C2O[C@]3(C=C[C@@H](O)C4(CC[C@@](C)(C5CC[C@](O)(CC)[C@H](C)O5)O4)O3)[C@H](C)C[C@@H]2C)O1` (some centres unmarked) [Br-p] belongs 100 µg/mL (≈ 109 µM); to `CC[C@H](C(=O)NCc1cccc([N+](=O)[O-])c1)C1CC[C@H](C)C([C@@H](C)[C@H](O)[C@H](C)C(=O)[C@H](CC)C2O[C@]3(C=C[C@@H](O)C4(CC[C@@](C)(C5CC[C@](O)(CC)[C@H](C)O5)O4)O3)[C@H](C)C[C@@H]2C)O1` (some centres unmarked) [NO2-m], > 100 µg/mL.
To `CCC(C(=O)NCc1ccccc1[N+](=O)[O-])C1CCC(C)C(C(C)C(O)C(C)C(=O)C(CC)C2OC3(C=CC(O)C4(CCC(C)(C5CCC(O)(CC)C(C)O5)O4)O3)C(C)CC2C)O1` (centres unmarked) [NO2-o] belongs 100 µg/mL (≈ 113 µM).

Source of the values: PMC6271077, “Synthesis, Anticancer and Antibacterial Activity of Salinomycin N-Benzyl Amides” (Molecules, 2014).
